Data from patent US20190151312A1, “HEPARAN SULFATE BIOSYNTHESIS INHIBITORS FOR THE TREATMENT OF DISEASES” (BioMarin Pharmaceutical Inc., priority 2014, published 2019).

test system: GM01896 cells (MPS II dermal fibroblasts); experiment: Assay 1: MPS cellular assay, MPS II (heparan sulfate disaccharide biomarkers by LC-MS); type: cell-based, human; conditions: Assay 1 for MPS II, heparan sulfate disaccharide biomarkers (I2a4, I2a6, I2S0 and/or I2S6), read-out: IC50 Range
Method in brief: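 Heparan sulfate disaccharide biomarkers quantified by LC-MS after heparinase I/II/III digestion and isotopic aniline labelling, using GM01896 MPS II fibroblasts exposed to compound (at or below 30 μM, 4-21 days). Values given as IC50 by curve fitting; cell viability checked with alamar blue or ATP.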

Compound | IC50
Cn1nc(CCN2CCOCC2)c2ccc(-c3cc(Nc4ccc(-n5cccn5)cc4)nc(N4CCOCC4)n3)cc21 [{6-[1-methyl-3-(2-morpholin-4-ylethyl)(1H-indazol-6-yl)]-2-morpholin-4-ylpyrimidin-4-yl}(4-pyrazolylphenyl)amine] | < 0.5 µM
[6-(1-methyl(1H-indazol-6-yl))-2-morpholin-4-ylpyrimidin-4-yl][4-(3-methylpyrazolyl)phenyl]amine | < 0.5 µM
{6-[1-methyl-3-(2-morpholin-4-ylethyl)(1H-indazol-6-yl)]-2-morpholin-4-ylpyrimidin-4-yl}[4-(3-methylpyrazolyl)phenyl]amine | < 0.5 µM

same assay, conditions: Homo sapiens, Fibroblast, Assay 1 for MPS II, heparan sulfate disaccharide biomarkers (I2a4, I2a6, I2S0 and/or I2S6), read-out: IC50 Range

Compound | IC50
CNC(=O)c1ccc(Nc2cc(-c3ccc4c(c3)ncn4CCN(C)C)nc(N3CCOCC3)n2)cc1 [{4-[(6-{1-[2-(dimethylamino)ethyl]benzimidazol-5-yl}-2-morpholin-4-ylpyrimidin-4-yl)amino]phenyl}-N-methylcarboxamide] | 1 to 5 µM
CNC(=O)c1ccc(Nc2cc(-c3ccc4ncn(CCN(C)C)c4c3)nc(N3CCOCC3)n2)cc1 [{4-[(6-{1-[2-(dimethylamino)ethyl]benzimidazol-6-yl}-2-morpholin-4-ylpyrimidin-4-yl)amino]phenyl}-N-methylcarboxamide] | < 0.5 µM
CNC(=O)c1ccc(Nc2cc(-c3ccc4ncn(CCCN(C)C)c4c3)nc(N3CCOCC3)n2)cc1 [{4-[(6-{1-[3-(dimethylamino)propyl]benzimidazol-6-yl}-2-morpholin-4-ylpyrimidin-4-yl)amino]phenyl}-N-methylcarboxamide] | 1 to 5 µM
CNC(=O)c1ccc(Nc2cc(-c3ccc4cn(CCN(C)C)nc4c3)nc(N3CCOCC3)n2)cc1 [{4-[(6-{2-[2-(dimethylamino)ethyl](2H-indazol-6-yl)}-2-morpholin-4-ylpyrimidin-4-yl)amino]phenyl}-N-methylcarboxamide] | < 0.5 µM
CNC(=O)c1ccc(Nc2cc(-c3ccc4[nH]ncc4c3)nc(N3CCOCC3)n2)cn1 [{5-[(6-(1H-indazol-5-yl)-2-morpholin-4-ylpyrimidin-4-yl)amino](2-pyridyl)}-N-methylcarboxamide] | 0.5 to 1 µM
CNC(=O)c1ccc(Nc2cc(-c3ccc4cn[nH]c4c3)nc(N3CCOCC3)n2)cn1 [{5-[(6-(1H-indazol-6-yl)-2-morpholin-4-ylpyrimidin-4-yl)amino](2-pyridyl)}-N-methylcarboxamide] | 0.5 to 1 µM
CNC(=O)c1ccc(Nc2cc(-c3ccc4nc[nH]c4c3)nc(N3CCOCC3)n2)cn1 [{5-[(6-benzimidazol-6-yl-2-morpholin-4-ylpyrimidin-4-yl)amino](2-pyridyl)}-N-methylcarboxamide] | 1 to 5 µM
Cn1ccc2ccc(Nc3cc(-c4ccc5nc(CCN6CCOCC6)n(CC6CC6)c5c4)nc(N4CCOCC4)n3)cc21 [{6-[1-(cyclopropylmethyl)-2-(2-morpholin-4-ylethyl)benzimidazol-6-yl]-2-morpholin-4-ylpyrimidin-4-yl}(1-methylindol-6-yl)amine] | < 0.5 µM
Cc1nc2ccc(-c3cc(Nc4ccc5ccn(C)c5c4)nc(N4CCOCC4)n3)cc2n1CC1CC1 [{6-[1-(cyclopropylmethyl)-2-methylbenzimidazol-6-yl]-2-morpholin-4-ylpyrimidin-4-yl}(1-methylindol-6-yl)amine] | < 0.5 µM
Cc1nnc(-c2ccc(Nc3cc(-c4ccc5nc(C)n(CC6CC6)c5c4)nc(N4CCOCC4)n3)cc2)[nH]1 [{6-[1-(cyclopropylmethyl)-2-methylbenzimidazol-6-yl]-2-morpholin-4-ylpyrimidin-4-yl}[4-(5-methyl(4H-1,2,4-triazol-3-yl))phenyl]amine] | < 0.5 µM
Cc1c(C)n(C)c2cc(Nc3cc(-c4ccc5c(CCN6CCOCC6)nn(C)c5c4)nc(N4CCOCC4)n3)ccc12 [{6-[1-methyl-3-(2-morpholin-4-ylethyl)(1H-indazol-6-yl)]-2-morpholin-4-ylpyrimidin-4-yl}(1,2,3-trimethylindol-6-yl)amine] | 0.5 to 1 µM
Cn1nc(CCN2CCOCC2)c2ccc(-c3cc(Nc4ccc(-n5nccn5)cc4)nc(N4CCOCC4)n3)cc21 [{6-[1-methyl-3-(2-morpholin-4-ylethyl)(1H-indazol-6-yl)]-2-morpholin-4-ylpyrimidin-4-yl}(4-(1,2,3-triazol-2-yl)phenyl)amine] | < 0.5 µM
Cn1nc(CCN2CCOCC2)c2ccc(-c3cc(Nc4ccc(-c5ncco5)cc4)nc(N4CCOCC4)n3)cc21 [{6-[1-methyl-3-(2-morpholin-4-ylethyl)(1H-indazol-6-yl)]-2-morpholin-4-ylpyrimidin-4-yl}(4-(1,3-oxazol-2-yl)phenyl)amine] | 0.5 to 1 µM
Cn1nc(CCN2CCOCC2)c2ccc(-c3cc(Nc4ccc(-c5cocn5)cc4)nc(N4CCOCC4)n3)cc21 [{6-[1-methyl-3-(2-morpholin-4-ylethyl)(1H-indazol-6-yl)]-2-morpholin-4-ylpyrimidin-4-yl}(4-(1,3-oxazol-4-yl)phenyl)amine] | < 0.5 µM
Cc1ccc(Nc2cc(-c3ccc4c(CCN5CCOCC5)nn(C)c4c3)nc(N3CCOCC3)n2)cc1 [{6-[1-methyl-3-(2-morpholin-4-ylethyl)(1H-indazol-6-yl)]-2-morpholin-4-ylpyrimidin-4-yl}(4-methylphenyl)amine] | 0.5 to 1 µM
Cn1nc(CCN2CCOCC2)c2ccc(-c3cc(Nc4ccc(-c5ccn[nH]5)cc4)nc(N4CCOCC4)n3)cc21 [{6-[1-methyl-3-(2-morpholin-4-ylethyl)(1H-indazol-6-yl)]-2-morpholin-4-ylpyrimidin-4-yl}(4-pyrazol-5-ylphenyl)amine] | < 0.5 µM
Cn1cccc1-c1ccc(Nc2cc(-c3ccc4c(CCN5CCOCC5)nn(C)c4c3)nc(N3CCOCC3)n2)cc1 [{6-[1-methyl-3-(2-morpholin-4-ylethyl)(1H-indazol-6-yl)]-2-morpholin-4-ylpyrimidin-4-yl}[4-(1-methylpyrrol-2-yl)phenyl]amine] | < 0.5 µM
Cn1ccc2ccc(Nc3cc(-c4ccc5c(CCN)nn(C)c5c4)nc(N4CCOCC4)n3)cc21 [{6-[3-(2-aminoethyl)-1-methyl(1H-indazol-6-yl)]-2-morpholin-4-ylpyrimidin-4-yl}(1-methylindol-6-yl)amine] | < 0.5 µM
Cn1ccc2ccc(Nc3cc(-c4ccc5c(CCCN)nn(C)c5c4)nc(N4CCOCC4)n3)cc21 [{6-[3-(3-aminopropyl)-1-methyl(1H-indazol-6-yl)]-2-morpholin-4-ylpyrimidin-4-yl}(1-methylindol-6-yl)amine] | < 0.5 µM
Cn1nc(CCCN)c2ccc(-c3cc(Nc4ccc(Cl)cc4)nc(N4CCOCC4)n3)cc21 [{6-[3-(3-aminopropyl)-1-methyl(1H-indazol-6-yl)]-2-morpholin-4-ylpyrimidin-4-yl}(4-chlorophenyl)amine] | 1 to 5 µM
Clc1ccc(Nc2cc(-c3ccc4c(Cl)nn(CCCN5CCOCC5)c4c3)nc(N3CCOCC3)n2)cc1 [{6-[3-chloro-1-(3-morpholin-4-ylpropyl)(1H-indazol-6-yl)]-2-morpholin-4-ylpyrimidin-4-yl}(4-chlorophenyl)amine] | 1 to 5 µM

test system: cultured primary human fibroblast from MPS patients; experiment: not given; conditions: 30-60 mM sodium chlorate; cited from earlier work

Compound | effect on synthesis of PAPs (sulfate donor)
[Na+].[O-][Cl+2]([O-])[O-] [sodium chlorate] | inhibits the synthesis of PAPs

same assay, conditions: cells grown in the presence of sodium chlorate; cited from earlier work

Compound | sulfation of heparan sulfate produced by cells
[Na+].[O-][Cl+2]([O-])[O-] [sodium chlorate] | reduced sulfation
